pEC50, pIC50: −log10 of the molar value.
Columns and labels:
[1] = system: Plasmodium falciparum; experiment: MMV: Inhibition of Plasmodium falciparum 3D7 (EC50).; format: functional, organism-based
[2] = system: Trypanosoma cruzi; experiment: MMV: Inhibition of Trypanosoma cruzi (Tulahuen C4 LacZ) (Chagas in vitro).; format: functional, organism-based
[3] = system: Trypanosoma brucei brucei; experiment: MMV: Inhibition of Trypanosoma brucei brucei (Squib 427) (HAT in vitro).; format: functional, organism-based
[4] = system: Plasmodium falciparum; experiment: MMV: Inhibition of Plasmodium falciparum 3D7 at 5uM compound concentration.; format: functional
[5] = MMV: Cytotoxicity against human fibroblasts (MRC-5) cells.; settings: MRC-5 cells (human fibroblasts)
[6] = system: Trypanosoma brucei rhodesiense; experiment: MMV: Inhibition of Trypanosoma brucei rhodesiense (STIB 900) (HAT in vitro).; format: functional, organism-based
[7] = system: Leishmania infantum; experiment: MMV: Inhibition of Leishmania infantum (MHOM/MA/BE/67) in vitro.; format: functional, organism-based
[8] = system: Plasmodium falciparum; experiment: MMV: Inhibition of Plasmodium falciparum K1 (EC50).; format: functional, organism-based

pEC50 [1] | pIC50 [2] | pIC50 [3] | pIC50 [6] | pIC50 [7] | pEC50 [8] | SMILES | inhibition at 5 µM [4] [%] | pIC50 [5]
6.27 | 4.73 | 4.83 | 5.01 | 4.67 |  | COc1ccc(Nc2nc(N/N=C/c3ccc(O)cc3)nc(Nc3ccc([N+](=O)[O-])cc3)n2)cc1 | 98 | < 4.49
6.63 | 6.00 | > 6.90 | > 6.90 | 5.99 | 5.81 | CN(C)CCCNc1c2ccccc2nc2ccccc12 | 95 | 5.54
6.46 | 6.55 | 4.87 | 4.83 | 5.27 | 7.09 | Cc1ccc(Nc2nc(-c3ccccn3)cs2)cc1 | 79 | 
 | < 4.49 | < 4.49 | < 4.49 | < 4.49 | 6.14 | COc1ccc(CN2CCCC(C(=O)c3ccc(C(F)(F)F)cc3)C2)c(O)c1 (centres undefined) | 97 | < 4.49
 | < 4.49 | 4.73 | 4.79 | < 4.49 | 6.52 | COc1ccc2nc(N)nc(C)c2c1 | 63 | < 4.49
5.97 | < 4.49 | < 4.49 | 4.72 | < 4.49 |  | O=C(NC1CCCCC1)C(c1cccs1)N(CCc1ccccc1)C(=O)c1ccco1 (centres undefined) | 90 | < 4.49
6.85 | < 4.49 | < 4.49 | < 4.49 | 4.79 |  | O=[N+]([O-])c1ccc(C=NNc2nc3ccccc3[nH]2)cc1 | 99 | < 4.49
5.84 | 5.19 | 6.07 | 6.60 | 4.92 |  | COc1ccc(CCN2CCC(CN(C)Cc3cnn(-c4ccccc4)c3)CC2)cc1 | 96 | 4.73
 | 5.42 | 6.04 | 5.99 | 6.00 | 6.24 | CCN(CC)CCn1c(=N)n(CC(O)c2ccc(Cl)c(Cl)c2)c2ccccc21 (centres undefined) | 97 | 4.79
5.92 | 4.79 | 4.79 | 4.79 | < 4.49 |  | COCCN(C(=O)Cc1cccs1)C(C(=O)NCc1ccc(OC)cc1)c1ccc(C(C)C)cc1 (centres undefined) | 92 | 4.57
5.88 | 5.34 | 5.39 | 5.92 | 5.36 |  | Cc1ccc2cc3c(N)c4c(C)ccc(C)c4nc3nc2c1 | 98 | 4.94
6.13 | < 4.49 | 5.52 | 5.88 | < 4.49 | 6.69 | CCOc1cc2c(cc1OCC)C(c1cc(Cl)ccc1O)NCC2 (centres undefined) | 98 | < 4.49
6.00 | < 4.49 | < 4.49 | < 4.49 | < 4.49 |  | CCn1c(SCC(=O)Nc2cc(C(F)(F)F)ccc2Cl)nc2ccccc2c1=O | 91 | < 4.49
6.17 | < 4.49 | 4.89 | 5.39 | 4.76 | 6.77 | CCOc1cc2c(cc1OCC)C(c1cc(C)c(O)c(C)c1)NCC2 (centres undefined) | 97 | < 4.49
 | < 4.49 | 4.88 | 5.39 | 4.60 | 6.19 | CCc1ccc(CNCC(O)c2ccccc2)cc1 (centres undefined) | 97 | < 4.49
5.88 | < 4.49 | 4.96 | 5.34 | 4.76 | 6.19 | CCOc1cc2c(cc1OCC)C(c1cc(Cl)c(O)c(OCC)c1)NCC2 (centres undefined) | 96 | < 4.49
6.71 | 5.43 | 4.91 | 4.92 | 5.36 | 7.79 | CCc1ccc(Nc2cc(C)c3ccc(O)cc3n2)cc1 | 98 | 5.11

SMILES | pEC50 [1] | pIC50 [2] | pIC50 [3] | pIC50 [6] | pIC50 [7] | pEC50 [8] | inhibition at 5 µM [4] [%] | pIC50 [5]
CCC(C)NCC(O)(c1ccc(Cl)cc1)c1ccc(Cl)cc1 (centres undefined) |  | 4.82 | 5.39 | 5.39 | 4.80 | 6.40 | 98 | < 4.49
O=C(CCc1ccco1)NC1CCN(CC2(c3ccc(Cl)cc3)CCC2)CC1 | 5.94 | 4.78 | 5.54 | 6.00 | 4.72 |  | 96 | < 4.49
C=CC12CCN(CC1)C(C(O)c1ccnc3ccc(OC)cc13)C2 (centres undefined) |  | < 4.49 | < 4.49 | 4.80 | < 4.49 | 7.55 |  | < 4.49
